Measured values published in ChEMBL document CHEMBL4507315 (2021).

Columns and labels:
[1] = biological target: Cyclin-dependent kinase-like 5 (Homo sapiens) (UniProt O76039); settings: Compound concentration 100.0 nM
[2] = biological target: Glycogen synthase kinase-3 beta (Homo sapiens) (UniProt P49841); settings: Compound concentration 100.0 nM
[3] = biological target: Membrane-associated tyrosine- and threonine-specific cdc2-inhibitory kinase (Homo sapiens) (UniProt Q99640); settings: Compound concentration 100.0 nM
Membrane-associated tyrosine- and threonine-specific cdc2-inhibitory kinase (Homo sapiens), sequence (Q99640 whole entry): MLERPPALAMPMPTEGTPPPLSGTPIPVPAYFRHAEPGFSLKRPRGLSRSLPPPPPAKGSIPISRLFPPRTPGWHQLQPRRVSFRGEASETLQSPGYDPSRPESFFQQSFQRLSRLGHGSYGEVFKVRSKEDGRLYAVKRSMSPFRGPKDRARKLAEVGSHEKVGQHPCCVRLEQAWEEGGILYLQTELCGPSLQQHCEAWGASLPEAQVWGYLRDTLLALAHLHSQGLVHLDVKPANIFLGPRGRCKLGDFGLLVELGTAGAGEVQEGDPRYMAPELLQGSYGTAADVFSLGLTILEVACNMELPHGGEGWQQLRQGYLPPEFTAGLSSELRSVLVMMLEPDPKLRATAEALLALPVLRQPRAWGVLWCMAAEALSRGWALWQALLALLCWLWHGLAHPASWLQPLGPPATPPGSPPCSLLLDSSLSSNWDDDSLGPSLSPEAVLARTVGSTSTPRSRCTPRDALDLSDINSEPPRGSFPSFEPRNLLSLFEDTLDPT

[4] = biological target: RAC-gamma serine/threonine-protein kinase (Homo sapiens) (UniProt Q9Y243); settings: Compound concentration 100.0 nM
[5] = biological target: Serine/threonine-protein kinase pim-3 (Homo sapiens) (UniProt Q86V86); settings: Compound concentration 100.0 nM
[6] = biological target: Receptor-interacting serine/threonine-protein kinase 4 (Homo sapiens) (UniProt P57078); settings: Compound concentration 100.0 nM
Receptor-interacting serine/threonine-protein kinase 4 (Homo sapiens), sequence (P57078 whole entry): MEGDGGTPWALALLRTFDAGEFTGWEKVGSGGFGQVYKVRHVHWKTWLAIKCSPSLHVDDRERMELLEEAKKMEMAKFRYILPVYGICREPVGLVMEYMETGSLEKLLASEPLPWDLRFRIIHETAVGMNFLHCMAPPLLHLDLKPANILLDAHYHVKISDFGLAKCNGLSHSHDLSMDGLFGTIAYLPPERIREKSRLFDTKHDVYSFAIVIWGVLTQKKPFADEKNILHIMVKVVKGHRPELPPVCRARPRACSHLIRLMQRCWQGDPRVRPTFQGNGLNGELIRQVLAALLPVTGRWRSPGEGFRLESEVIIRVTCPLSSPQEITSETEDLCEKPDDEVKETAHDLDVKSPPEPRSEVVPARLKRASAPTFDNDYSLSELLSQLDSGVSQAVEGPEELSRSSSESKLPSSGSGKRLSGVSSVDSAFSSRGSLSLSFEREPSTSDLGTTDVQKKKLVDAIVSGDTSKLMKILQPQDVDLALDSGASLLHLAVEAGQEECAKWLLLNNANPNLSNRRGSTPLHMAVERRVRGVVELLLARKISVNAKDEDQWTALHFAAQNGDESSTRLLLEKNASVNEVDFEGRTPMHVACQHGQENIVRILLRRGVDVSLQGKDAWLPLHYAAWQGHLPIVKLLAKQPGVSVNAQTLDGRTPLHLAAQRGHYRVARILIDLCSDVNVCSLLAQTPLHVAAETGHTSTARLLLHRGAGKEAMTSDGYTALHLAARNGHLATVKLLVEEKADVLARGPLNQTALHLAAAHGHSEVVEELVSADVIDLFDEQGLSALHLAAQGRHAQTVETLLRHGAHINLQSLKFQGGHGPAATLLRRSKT

[7] = biological target: Serine/threonine-protein kinase pim-2 (Homo sapiens) (UniProt Q9P1W9); settings: Compound concentration 100.0 nM
Serine/threonine-protein kinase pim-2 (Homo sapiens), sequence (Q9P1W9 whole entry, looked up): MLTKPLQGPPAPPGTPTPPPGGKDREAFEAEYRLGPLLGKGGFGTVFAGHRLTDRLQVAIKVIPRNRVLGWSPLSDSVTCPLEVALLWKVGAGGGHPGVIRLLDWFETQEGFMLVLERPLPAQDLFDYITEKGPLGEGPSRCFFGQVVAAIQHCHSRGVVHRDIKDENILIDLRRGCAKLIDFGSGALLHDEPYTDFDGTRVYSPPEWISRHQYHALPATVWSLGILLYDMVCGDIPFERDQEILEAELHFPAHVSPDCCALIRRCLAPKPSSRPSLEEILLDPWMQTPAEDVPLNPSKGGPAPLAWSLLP

[8] = biological target: Serine/threonine-protein kinase Nek7 (Homo sapiens) (UniProt Q8TDX7); settings: Compound concentration 100.0 nM
[9] = test system: Hepatocyte growth factor receptor (Homo sapiens), P08581 [M1250T]; settings: Compound concentration 100.0 nM
[10] = biological target: Ephrin type-B receptor 2 (Homo sapiens) (UniProt P29323); settings: Compound concentration 100.0 nM
[11] = biological target: Serine/threonine-protein kinase DCLK3 (Homo sapiens) (UniProt Q9C098); settings: Compound concentration 100.0 nM
[12] = biological target: Ribosomal protein S6 kinase alpha-3 (Homo sapiens) (UniProt P51812); settings: Compound concentration 100.0 nM
[13] = biological target: Ephrin type-A receptor 5 (Homo sapiens) (UniProt P54756); settings: Compound concentration 100.0 nM
[14] = biological target: Serine/threonine-protein kinase SIK1 (Homo sapiens) (UniProt P57059); settings: Compound concentration 100.0 nM
[15] = biological target: Interleukin-1 receptor-associated kinase 4 (Homo sapiens) (UniProt Q9NWZ3); settings: Compound concentration 100.0 nM
[16] = biological target: Peripheral plasma membrane protein CASK (Homo sapiens) (UniProt O14936); settings: Compound concentration 100.0 nM
[17] = biological target: Serine/threonine-protein kinase ULK3 (Homo sapiens) (UniProt Q6PHR2); settings: Compound concentration 100.0 nM
Serine/threonine-protein kinase ULK3 (Homo sapiens), sequence (Q6PHR2 whole entry): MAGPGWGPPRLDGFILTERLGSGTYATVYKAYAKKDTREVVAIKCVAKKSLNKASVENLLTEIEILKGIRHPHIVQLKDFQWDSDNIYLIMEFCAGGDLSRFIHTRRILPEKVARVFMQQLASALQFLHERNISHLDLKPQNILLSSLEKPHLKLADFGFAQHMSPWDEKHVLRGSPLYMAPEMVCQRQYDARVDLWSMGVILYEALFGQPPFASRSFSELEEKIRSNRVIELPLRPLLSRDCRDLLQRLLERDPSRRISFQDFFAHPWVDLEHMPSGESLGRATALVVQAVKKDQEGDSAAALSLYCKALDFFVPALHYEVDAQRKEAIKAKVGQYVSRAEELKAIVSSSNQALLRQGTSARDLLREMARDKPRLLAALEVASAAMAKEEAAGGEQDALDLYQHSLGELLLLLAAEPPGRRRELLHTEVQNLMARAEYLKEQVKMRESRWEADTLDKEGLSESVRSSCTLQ

[18] = biological target: Interferon-induced, double-stranded RNA-activated protein kinase (Homo sapiens) (UniProt P19525); settings: Compound concentration 100.0 nM
Interferon-induced, double-stranded RNA-activated protein kinase (Homo sapiens), sequence (P19525 whole entry): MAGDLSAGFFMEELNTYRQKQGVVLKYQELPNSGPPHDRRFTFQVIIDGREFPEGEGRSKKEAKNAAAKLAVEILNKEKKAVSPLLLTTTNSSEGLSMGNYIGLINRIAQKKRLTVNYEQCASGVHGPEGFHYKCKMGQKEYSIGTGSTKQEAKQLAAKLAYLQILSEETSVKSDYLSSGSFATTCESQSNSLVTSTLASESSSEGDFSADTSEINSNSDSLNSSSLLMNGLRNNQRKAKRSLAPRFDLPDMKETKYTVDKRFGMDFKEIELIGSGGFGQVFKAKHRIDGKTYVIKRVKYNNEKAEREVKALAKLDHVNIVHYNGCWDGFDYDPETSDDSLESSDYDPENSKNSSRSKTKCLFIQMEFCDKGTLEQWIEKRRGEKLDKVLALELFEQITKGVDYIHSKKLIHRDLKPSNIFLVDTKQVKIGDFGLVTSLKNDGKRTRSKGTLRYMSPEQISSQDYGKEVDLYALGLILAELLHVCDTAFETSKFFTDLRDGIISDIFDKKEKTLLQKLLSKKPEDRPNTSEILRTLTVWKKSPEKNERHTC

[19] = biological target: Tyrosine-protein kinase ABL1 (Homo sapiens) (UniProt P00519); settings: Compound concentration 100.0 nM
[20] = biological target: Vascular endothelial growth factor receptor 2 (Homo sapiens) (UniProt P35968); settings: Compound concentration 100.0 nM
[21] = biological target: Inhibitor of nuclear factor kappa-B kinase subunit beta (Homo sapiens) (UniProt O14920); settings: Compound concentration 100.0 nM
[22] = biological target: NT-3 growth factor receptor (Homo sapiens) (UniProt Q16288); settings: Compound concentration 100.0 nM
NT-3 growth factor receptor (Homo sapiens), sequence (Q16288 32-839 limits assumed): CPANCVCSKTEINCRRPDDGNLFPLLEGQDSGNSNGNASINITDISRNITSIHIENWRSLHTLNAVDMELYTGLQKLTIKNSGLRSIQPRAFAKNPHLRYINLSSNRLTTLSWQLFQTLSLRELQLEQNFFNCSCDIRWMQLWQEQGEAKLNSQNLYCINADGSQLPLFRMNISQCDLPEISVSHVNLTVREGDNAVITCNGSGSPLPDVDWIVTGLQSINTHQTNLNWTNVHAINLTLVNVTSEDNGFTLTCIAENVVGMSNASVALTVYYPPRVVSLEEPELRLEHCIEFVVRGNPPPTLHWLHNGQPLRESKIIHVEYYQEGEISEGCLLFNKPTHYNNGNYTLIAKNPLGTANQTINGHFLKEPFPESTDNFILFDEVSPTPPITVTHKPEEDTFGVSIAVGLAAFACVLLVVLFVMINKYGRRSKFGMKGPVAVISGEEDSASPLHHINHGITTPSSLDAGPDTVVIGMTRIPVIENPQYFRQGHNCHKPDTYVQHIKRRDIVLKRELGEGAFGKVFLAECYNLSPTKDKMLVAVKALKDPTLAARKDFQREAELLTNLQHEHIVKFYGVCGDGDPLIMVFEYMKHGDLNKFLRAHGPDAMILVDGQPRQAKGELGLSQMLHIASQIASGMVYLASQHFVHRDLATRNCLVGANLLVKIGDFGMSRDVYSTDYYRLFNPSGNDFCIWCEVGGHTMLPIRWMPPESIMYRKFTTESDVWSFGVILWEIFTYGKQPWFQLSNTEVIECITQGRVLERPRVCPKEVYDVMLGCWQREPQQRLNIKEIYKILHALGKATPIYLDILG

[23] = test system: Epidermal growth factor receptor (Homo sapiens), P00533 [UNDEFINED MUTATION]; settings: Compound concentration 100.0 nM
[24] = biological target: Phosphatidylinositol 4-phosphate 5-kinase type-1 gamma (Homo sapiens) (UniProt O60331); settings: Compound concentration 100.0 nM
[25] = biological target: Delta-type opioid receptor (Homo sapiens) (UniProt P41143); settings: Compound concentration 10.0 uM
[26] = biological target: Phosphorylase b kinase regulatory subunit alpha, liver isoform (Homo sapiens) (UniProt P46019); settings: Compound concentration 100.0 nM
[27] = biological target: Receptor-interacting serine/threonine-protein kinase 2 (Homo sapiens) (UniProt O43353); settings: Compound concentration 100.0 nM
Receptor-interacting serine/threonine-protein kinase 2 (Homo sapiens), sequence (O43353 whole entry): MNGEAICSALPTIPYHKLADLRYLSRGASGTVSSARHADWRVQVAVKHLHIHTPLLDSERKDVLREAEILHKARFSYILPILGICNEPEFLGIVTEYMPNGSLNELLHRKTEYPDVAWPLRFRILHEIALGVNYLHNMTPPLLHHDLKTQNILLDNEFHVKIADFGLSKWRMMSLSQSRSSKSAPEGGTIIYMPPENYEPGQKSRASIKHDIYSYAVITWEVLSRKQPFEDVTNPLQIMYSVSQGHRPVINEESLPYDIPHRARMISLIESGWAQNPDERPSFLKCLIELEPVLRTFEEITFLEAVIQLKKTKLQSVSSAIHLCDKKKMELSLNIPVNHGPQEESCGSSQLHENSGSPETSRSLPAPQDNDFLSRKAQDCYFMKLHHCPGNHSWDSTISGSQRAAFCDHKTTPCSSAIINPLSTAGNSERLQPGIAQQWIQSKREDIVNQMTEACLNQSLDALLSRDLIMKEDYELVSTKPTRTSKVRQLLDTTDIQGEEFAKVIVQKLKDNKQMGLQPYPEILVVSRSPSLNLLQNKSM

[28] = biological target: Tyrosine-protein kinase ABL2 (Homo sapiens) (UniProt P42684); settings: Compound concentration 100.0 nM
[29] = biological target: Cyclin-dependent kinase 5 (Homo sapiens) (UniProt Q00535); settings: Compound concentration 100.0 nM
[30] = biological target: Rhodopsin kinase GRK1 (Homo sapiens) (UniProt Q15835); settings: Compound concentration 100.0 nM
[31] = biological target: Serine/threonine-protein kinase 32C (Homo sapiens) (UniProt Q86UX6); settings: Compound concentration 100.0 nM
[32] = biological target: NUAK family SNF1-like kinase 2 (Homo sapiens) (UniProt Q9H093); settings: Compound concentration 100.0 nM
[33] = biological target: Serine/threonine-protein kinase STK11 (Homo sapiens) (UniProt Q15831); settings: Compound concentration 100.0 nM
[34] = biological target: Homeodomain-interacting protein kinase 2 (Homo sapiens) (UniProt Q9H2X6); settings: Compound concentration 100.0 nM
[35] = biological target: Insulin receptor-related protein (Homo sapiens) (UniProt P14616); settings: Compound concentration 100.0 nM
[36] = biological target: Calcium/calmodulin-dependent protein kinase kinase 2 (Homo sapiens) (UniProt Q96RR4); settings: Compound concentration 100.0 nM
Calcium/calmodulin-dependent protein kinase kinase 2 (Homo sapiens), sequence (Q96RR4 2-588 limits assumed): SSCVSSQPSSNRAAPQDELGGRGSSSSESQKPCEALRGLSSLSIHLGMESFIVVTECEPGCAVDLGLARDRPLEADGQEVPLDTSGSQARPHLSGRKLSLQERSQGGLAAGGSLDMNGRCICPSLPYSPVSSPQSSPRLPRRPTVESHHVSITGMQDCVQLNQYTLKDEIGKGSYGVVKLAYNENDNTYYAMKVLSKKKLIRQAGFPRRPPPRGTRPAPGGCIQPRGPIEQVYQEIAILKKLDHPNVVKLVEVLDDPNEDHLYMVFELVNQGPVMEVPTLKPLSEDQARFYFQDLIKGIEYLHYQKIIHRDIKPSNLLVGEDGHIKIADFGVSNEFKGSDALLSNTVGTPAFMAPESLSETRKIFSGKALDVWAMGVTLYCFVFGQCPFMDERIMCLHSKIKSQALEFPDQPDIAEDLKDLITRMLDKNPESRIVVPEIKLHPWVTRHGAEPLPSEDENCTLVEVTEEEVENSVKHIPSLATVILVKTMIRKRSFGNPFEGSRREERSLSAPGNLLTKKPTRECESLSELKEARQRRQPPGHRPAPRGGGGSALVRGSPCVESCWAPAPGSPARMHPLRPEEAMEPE

[37] = biological target: Tyrosine-protein kinase TXK (Homo sapiens) (UniProt P42681); settings: Compound concentration 100.0 nM
[38] = biological target: Dual specificity testis-specific protein kinase 1 (Homo sapiens) (UniProt Q15569); settings: Compound concentration 100.0 nM
[39] = biological target: Ephrin type-A receptor 2 (Homo sapiens) (UniProt P29317); settings: Compound concentration 100.0 nM
[40] = biological target: TRAF2 and NCK-interacting protein kinase (Homo sapiens) (UniProt Q9UKE5); settings: Compound concentration 100.0 nM
[41] = biological target: Epidermal growth factor receptor (Homo sapiens) (UniProt P00533); settings: Compound concentration 100.0 nM
[42] = biological target: Serine/threonine-protein kinase PLK3 (Homo sapiens) (UniProt Q9H4B4); settings: Compound concentration 100.0 nM
[43] = biological target: Activin receptor type-2B (Homo sapiens) (UniProt Q13705); settings: Compound concentration 100.0 nM
[44] = biological target: Casein kinase I isoform alpha (Homo sapiens) (UniProt P48729); settings: Compound concentration 100.0 nM
[45] = biological target: Serine/threonine-protein kinase 4 (Homo sapiens) (UniProt Q13043); settings: Compound concentration 100.0 nM

Glycogen synthase kinase-3 beta (Homo sapiens), sequence (P49841 whole entry, looked up): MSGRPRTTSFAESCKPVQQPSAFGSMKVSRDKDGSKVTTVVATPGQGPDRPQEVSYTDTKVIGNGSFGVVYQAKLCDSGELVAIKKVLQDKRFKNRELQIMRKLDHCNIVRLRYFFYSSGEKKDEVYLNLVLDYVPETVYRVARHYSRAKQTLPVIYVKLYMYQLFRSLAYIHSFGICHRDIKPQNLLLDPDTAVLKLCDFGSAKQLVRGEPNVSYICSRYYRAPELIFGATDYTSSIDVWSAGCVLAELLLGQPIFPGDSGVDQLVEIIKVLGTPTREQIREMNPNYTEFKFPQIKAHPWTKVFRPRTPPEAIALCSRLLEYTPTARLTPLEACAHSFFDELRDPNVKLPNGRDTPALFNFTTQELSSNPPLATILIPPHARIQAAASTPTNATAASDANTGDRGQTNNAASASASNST

O=C(NCCCC1CCCCC1)c1ccc(CNC(=O)c2cnn(-c3ccccc3)c2C(F)(F)F)cc1 [SR-321]
inactive: residual activity [1] 100% | residual activity [2] 100% | residual activity [3] 77% | residual activity [4] 97% | residual activity [5] 100% | residual activity [6] 58% | residual activity [7] 100% | residual activity [8] 97% | residual activity [9] 76% | residual activity [10] 100% | residual activity [11] 100% | residual activity [12] 100% | residual activity [13] 92% | residual activity [14] 91% | residual activity [15] 100% | residual activity [16] 100% | residual activity [17] 100% | residual activity [18] 64% | residual activity [19] 88% | residual activity [20] 97% | residual activity [21] 100% | residual activity [22] 100% | residual activity [23] 100% | residual activity [24] 90% | inhibition [25] 12.9% | residual activity [26] 100% | residual activity [27] 97% | residual activity [28] 87% | residual activity [29] 88% | residual activity [30] 94% | residual activity [31] 100% | residual activity [32] 100% | residual activity [33] 100% | residual activity [34] 100% | residual activity [35] 100% | residual activity [36] 100% | residual activity [37] 100% | residual activity [38] 100% | residual activity [39] 80% | residual activity [40] 100% | residual activity [41] 100% | residual activity [42] 100% | residual activity [43] 96% | residual activity [44] 99% | residual activity [45] 100%

Nc1c(C(=O)NCc2ccc(C(=O)NCCCC3CCCCC3)cc2)cnn1-c1ccccc1 [SR-318]
inactive: residual activity [1] 100% | residual activity [2] 100% | residual activity [3] 100% | residual activity [4] 78% | residual activity [5] 91% | residual activity [6] 100% | residual activity [7] 100% | residual activity [8] 99% | residual activity [9] 100% | residual activity [10] 100% | residual activity [11] 100% | residual activity [12] 100% | residual activity [13] 100% | residual activity [14] 100% | residual activity [15] 100% | residual activity [16] 78% | residual activity [17] 100% | residual activity [18] 54% | residual activity [19] 97% | residual activity [20] 100% | residual activity [21] 100% | residual activity [22] 97% | residual activity [23] 84% | residual activity [24] 93% | inhibition [25] 24.1% | residual activity [26] 100% | residual activity [27] 96% | residual activity [28] 100% | residual activity [29] 100% | residual activity [30] 100% | residual activity [31] 90% | residual activity [32] 100% | residual activity [33] 100% | residual activity [34] 100% | residual activity [35] 100% | residual activity [36] 100% | residual activity [37] 83% | residual activity [38] 100% | residual activity [39] 100% | residual activity [40] 100% | residual activity [41] 99% | residual activity [42] 100% | residual activity [43] 100% | residual activity [44] 100% | residual activity [45] 100%
